Laboratory results: patent publication US4994479A, “Phenylene derivatives and anti-allergic use thereof” (Yamanouchi Pharmaceutical Co., Ltd., priority 1985, dated 1991)
Each block holds one compound with its values, some of them ahead of it.

Tests used:
[1] = test system: SRS-A-induced contractions of guinea-pig ileum; assay: Inhibition of SRS-A-induced contractions of isolated guinea-pig ileum; set-up: species or system guinea-pig (male Hartley); conditions: for IC50: Cavia porcellus, 20 min, submaximal concentration of SRS-A, incubation 20 minutes; for anti-SRS-A activity: in words
Protocol: (§1) Male Hartley guinea- pigs, weighing 500 to 700 g were sacrificed by a blow on the head. The ileum and tracheal strips prepared according to the method of Constantine (1965) were suspended with 1.0 g tension in an organ bath containing 10 ml of Tyrode solution equilibrated with a mixture of 95% O2 and 5% CO2 at 37° C. The tissues were equilibrated for 60 minutes; during this period the Tyrode solution was replaced every 15 minutes and the loading tension was adjusted to 1.0 g. The developed tension of the tissues was measured isometrically with a strain gauge transducer, and recorded on a Recticorder. Both the contractile response of the ileum to submaximal concentration of SRS-A (derived from guinea-pig lung) and tracheal response to 10^-8 M LTD4 were recorded in the absence and then the presence of various concentrations of test compounds. The incubation time of the compounds was 20 minutes.

[2] = test system: LTD4-induced contractions of guinea-pig trachea; assay: Inhibition of LTD4-induced contractions of isolated guinea-pig trachea; set-up: species or system guinea-pig (male Hartley); conditions: for IC50: Cavia porcellus, 20 min, 10^-8 M LTD4, incubation 20 minutes; for inhibition of contractions induced by LTD4: in words
Protocol: as §1

[3] = test system: LTD4-enhanced vascular permeability; assay: Inhibition of LTD4-enhanced vascular permeability in guinea-pigs; assay type: in vivo, guinea-pig (male Hartley); conditions: for ED50: Cavia porcellus, 30 minutes before intradermal 5 ng LTD4; for ED50 / inhibition of LTD4-enhanced vascular permeability: oral; for anti-Leukotriene effect by oral route / inhibition of LTD4-enhanced vascular permeability: in words; for inhibition of LTD4-enhanced vascular permeability: 30 minutes before LTD4
Protocol: Male Hartley guinea-pigs weighing 270 to 305, g starved for 16 hours, were intradermally injected with 5 ng LTD4 in a volume of 0.1 ml into two sites on the shaved back. In addition, 0.1 ml of vehicle was injected intradermally in each animal to see non-specific irritation. One ml of saline containing 1% Evans […] was intravenously injected 2 minutes before LTD4 injection. The leaked dye at the site of LTD4 or vehicle injection was extracted according to the method of Harada et al. (1971) and measured photometrically at 620 nm. The LTD4 -induced skin reaction was expressed as a difference in the amount of dye between LTD4 and vehicle. Test compounds were orally administered 30 minutes before LTD4 injection.

Compound: O=C(O)CCc1ccccc1NC(=O)c1ccc(OCCCCc2ccccc2)cc1 [Example 18, 3-[o-[p-(4-Phenylbutoxy)benzamido]phenyl]propionic acid]
- IC50 [1]: 0.033 µM
- anti-SRS-A activity [1]: potent anti-SRS-A activity

Compound: O=C(O)COc1ccccc1NC(=O)c1ccc(OCCCCc2ccccc2)cc1 [Example 42, o-[p-(4-Phenylbutoxy)benzamido]phenoxyacetic acid]
- IC50 [1]: 0.081 µM
- anti-SRS-A activity [1]: potent anti-SRS-A activity

Compound: Cc1ccc(OCC(=O)O)c(NC(=O)c2ccc(OCCCCc3ccccc3)cc2)c1 [Example 39, 4-methyl-2-[p-(4-phenylbutoxy)benzamido]phenoxyacetic acid]
- IC50 [1]: 0.0073 µM
- anti-SRS-A activity [1]: potent anti-SRS-A activity
- IC50 [2]: 0.25 µM
- inhibition of contractions induced by LTD4 [2]: inhibited the contractions induced by LTD4
- ED50 [3]: 36.1 mg/kg
- anti-Leukotriene effect by oral route [3]: potent anti-Leukotriene effect
- inhibition of LTD4-enhanced vascular permeability [3]: dose-dependently inhibited

Compound: O=C(O)COc1ccc(Cl)cc1NC(=O)c1ccc(OCCCCc2ccccc2)cc1 [Example 40, 4-Chloro-2-[p-(4-phenylbutoxy)benzamido]phenoxyacetic acid]
- IC50 [1]: 0.0036 µM
- anti-SRS-A activity [1]: potent anti-SRS-A activity
- IC50 [2]: 0.057 µM
- inhibition of contractions induced by LTD4 [2]: inhibited the contractions induced by LTD4
- ED50 [3]: 5.5 mg/kg
- anti-Leukotriene effect by oral route [3]: potent anti-Leukotriene effect
- inhibition of LTD4-enhanced vascular permeability [3]: dose-dependently inhibited

- IC50 [1]: 0.044 µM
- IC50 [2]: 0.4 µM
Compound: CCCCCCCOc1cccc(C(=O)Nc2ccccc2OCc2nnn[nH]2)c1 [Example 23, 3-Heptyloxy-2'-(5-tetrazolylmethoxy)benzanilide]
- anti-SRS-A activity [1]: potent anti-SRS-A activity
- inhibition of contractions induced by LTD4 [2]: inhibited the contractions induced by LTD4
- ED50 [3]: 22.8 mg/kg
- anti-Leukotriene effect by oral route [3]: potent anti-Leukotriene effect
- inhibition of LTD4-enhanced vascular permeability [3]: dose-dependently inhibited

Compound: CCOC(=O)CCc1ccccc1NC(=O)c1ccc(OCCCCc2ccccc2)cc1 [Example 10, Ethyl 3-[o-[p-(4-phenylbutoxy)benzamido]phenyl]propionate]
- IC50 [1]: 0.018 µM
- anti-SRS-A activity [1]: potent anti-SRS-A activity

Compound: O=C(O)COc1ccc([N+](=O)[O-])cc1NC(=O)c1ccc(OCCCCc2ccccc2)cc1 [Example 41, 4-Nitro-2-[p-(4-phenylbutoxy)benzamido]phenoxyacetic acid]
- IC50 [1]: 0.0074 µM
- anti-SRS-A activity [1]: potent anti-SRS-A activity
